Results: patent US9307761B2, “Microbial composition” (Rohm and Haas Company, priority 2011, dated 2016)
Like-named read-outs stand apart in the source and are kept apart here.

Columns and labels:
Type in all cases: cell-based
[1] = system: Escherichia coli (E. coli—ATCC #10536); assay: Synergy tests: high resolution MBC microtiter plate assay, 15 seconds contact, phosphate buffer containing […] dipropylene glycol
Text: The concentrations and ratios may also vary under different test conditions or with different test methods.
One measure of synergy is the industrially accepted method described by Kull, F. C.; Eisman, P. C.; Sylwestrowicz, H. D. and Mayer, R. L., in Applied Microbiology 9:538-541 (1961), using the ratio determined by the formula: Qa/QA+Qb/QB=Synergy Index (“SI”) wherein: • QA=concentration of compound A (first component) in percent, acting alone, which produced an end point (MBC of Compound A). • Qa=concentration of compound A in percent, in the mixture, which produced an end point. • QB=concentration of compound B (second component) in percent, acting alone, which produced an end point (MBC of Compound B). • Qb=concentration of compound B in percent, in the mixture, which produced an end point.
When the sum of Qa/QA and Qb/QB is greater than one, antagonism is indicated. […] The lower the SI, the greater is the synergy shown by that particular mixture. The minimum biocidal concentration (MBC) of a microbicide is the lowest concentration tested under a specific set of conditions that provides complete kill of the tested microorganisms.
Synergy tests were conducted using standard microtiter plate assays with phosphate buffer containing 3.5% dipropylene glycol (DPG). In this method, a wide range of combinations of chemicals was tested by conducting high resolution MBC assays of Component (A) in the presence of various concentrations of Component (B). High resolution MBCs were determined by adding varying amounts of microbicide to one column of a microtiter plate and doing subsequent […] dilutions using an automated liquid handling system to obtain a series of closely spaced endpoints. The MBC plate was inoculated one column at a time with the test microorganism. An aliquot of the inoculated well was transferred at 15 seconds to a plate containing a neutralizing agent (D/E Neutralizing Broth), mixed and held for 5 minutes before being transferred to a growth plate containing trypticase soy broth (TSB). The TSB plate was incubated at 37° C. and read for the presence/absence of growth at 24 hours. The lowest level tested that provided complete kill (as evidenced by no growth in the microtitre plate) of the test organisms in 15 seconds is the minimum biocidal concentration (MBC).
The synergy of the combinations of the present invention was determined against a bacterium, Escherichia coli (E. coli—ATCC #10536), at a concentration of approximately 1×10^8 bacteria, per mL. This microorganism is representative of natural contaminants in many consumer and industrial applications.

[2] = system: Escherichia coli (10536 strain); assay: 15 seconds contact kill assay of actives in water, mean bacterial survival NMBS; settings: for MBC of phenolic compound: phenolic compound alone; for NMBS: alone, 15 seconds contact
[3] = system: Escherichia coli (E. coli—ATCC #10536); assay: Automated assessment of efficacy in model surfactant medium (2.85% sodium cocoyl glycinate and 1.85% sodium lauroamphoacetate), 15 seconds exposure, delta OD450/OD590; settings: for No. of replicates showing growth (out of 4) / Δ OD 450 nm = OD450 (time = 16 hours) − OD450 (time zero), Mean / Δ OD 590 nm OD590 (time = 16 hours) − OD590 (time zero), Mean / MBC of phenol: model surfactant solution; for No. of replicates showing growth (out of 4) / Δ OD 450 nm = OD450 (time = 16 hours) − OD450 (time zero), Mean / Δ OD 590 nm OD590 (time = 16 hours) − OD590 (time zero), Mean: 15 s exposure; for MBC: Escherichia coli, ATCC10536, 15 s, in 2.85% sodium cocoyl glycinate + 1.85% sodium lauroamphoacetate solution at pH 10, E. coli, read-out: MBC (minimum biocidal concentration); for MBC of phenol: phenol alone, complete bacterial kill against E. coli
Method: Micobiocidal Activity of Actives as Per the Invention in a Model Surfactant Medium Test Methodology for Automated Assessment of Efficacy in Surfactant Base
Solutions were prepared such that the concentrations of the surfactant components and test actives were 1.1×the final desired concentration in order to allow for dilution with the bacterial inoculum in the test. The solutions were manually adjusted to […] by dropwise addition of sodium hydroxide solution, as measured with a pH meter at ambient temperature.
Tests were conducted using standard microtiter plate assays using an automated liquid handling system, 270 μl of the surfactant test solution was pipetted into each well of the microtitre plate and 30 μl of the bacterial suspension was then added. After exactly 15 seconds of bacterial exposure, a 30 μl volume of bacterial cells was withdrawn and transferred to 270 μl of D/E quench solution. After 5 minutes in the D/E quench, the optical density (OD) was measured for each plate in turn at two specific wavelengths (450 nm and 590 nm). These provide a dual check of antimicrobial activity, as the OD450 reading is specific for the yellow colour of D/E quench when bacterial growth is observed, whereas OD590 is specific for the initial purple colour of the D/E quench which is retained if no bacterial growth is observed. After the time zero OD measurements, plates were then incubated at 37° C. overnight (16 hours) before repeating the OD measurements. Delta OD values were calculated by subtracting […]. Bacterial growth is observed as art increase in OD450 and a decrease in ΔOD590. To identify antibacterially efficacious systems (those preventing appreciable bacterial growth after incubation), the following threshold changes in OD readings have been adopted: if (1). OD450 increases by less than 0.2 absorbance unit on incubation and (2). OD590 decreases by less than 0.35 unit on incubation. Conversely, where OD450 increases by more than 0.2 AU and OD590 decreases by more than 0.35 unit after incubation, corresponding to a colour shift from purple to yellow, the test system allows bacterial growth and is not deemed efficacious, four replicate measurements in the same plate have been made for each test system. The number of replicate wells showing either bacterial growth or no growth is also readily assessed by eye by following the colour change.
Dose responses for individual components and binary mixtures of actives at a fixed concentration ratio were generated by sequential dilution of liquors with further surfactant solution to obtain a series of endpoints.
In some selected cases, the combinations were also tested at the weight ratio 1:1.

[4] = E. coli 10536, at Qa and Qb, <1 synergy, 1 additivity, >1 antagonism
[5] = complete bacterial kill against E. coli
[6] = single active alone at 0.1% w/v
[7] = single active alone at 0.2% w/v
[8] = single active alone at 0.3% w/v
[9] = single active alone at 0.175% w/v

For `CC(C)(C)c1cccc(O)c1` [3-tert-butylphenol], the “SI (Synergy Index = Qa/QA + Qb/QB)” value [1, 4] was 1.00 and the “MBC of the component acting alone (QA or QB)” value ([1]; E. coli 10536, component alone, complete kill in 15 seconds) was 0.3 weight %.

With `CCCc1ccccc1O` [2-propyl phenol] the “MBC of phenolic compound” value [2, 5] was 0.125 % (w/v).

For `CC1=CCC(C(C)CO)CC1` (stereo not drawn) [2-(4-methylcyclohex-3-enyl)propan-1-ol], the “SI (Synergy Index = Qa/QA + Qb/QB)” value [1, 4] was 1.00.

With `CCC(C)c1ccccc1O` (stereo not drawn) [2-sec-butylphenol] the “No. of replicates showing growth (out of 4)” value [3, 6] was 4, the “Δ OD 450 nm = OD450 (time = 16 hours) − OD450 (time zero), Mean” value (from here on “Δ OD 450 nm = OD450”) [3, 6] was −1.44 and the “Δ OD 590 nm OD590 (time = 16 hours) − OD590 (time zero), Mean” value (from here on “Δ OD 590 nm OD590”) [3, 6] was 0.36.

With `CCCCc1ccc(O)cc1` [4-butylphenol] the “No. of replicates showing growth (out of 4)” value [3, 6] was 4, the “Δ OD 450 nm = OD450” value [3, 6] was −0.61 and the “Δ OD 590 nm OD590” value [3, 6] was 0.53. For the same compound, the “No. of replicates showing growth (out of 4)” value [3, 7] was 4, the “Δ OD 450 nm = OD450” value [3, 7] was −0.54 and the “Δ OD 590 nm OD590” value [3, 7] was 0.58. The “No. of replicates showing growth (out of 4)” value ([3]; single active alone at […] w/v) was 4, the “Δ OD 450 nm = OD450” value ([3]; single active alone at […] w/v) was −0.58 and the “Δ OD 590 nm OD590” value ([3]; single active alone at […] w/v) was 0.54.

In the case of `CC1CCC(CO)C(C)C1` (stereo not drawn) [dihydrofloralol, 2,4-Dimethylcyclohexylmethanol], the NMBS ([2]; 0.3% w/v, E. coli) is reported as 6.18 log CFU/ml, the NMBS ([2]; 0.4% w/v, E. coli) is reported as 3.97 log CFU/ml and the NMBS ([2]; 0.5% w/v, E. coli) is reported as 0.00 log CFU/ml. The MBC [3] was 4000 µg/mL, the “No. of replicates showing growth (out of 4)” value [3, 7] was 4 and the “Δ OD 450 nm = OD450” value [3, 7] was −1.39. The “Δ OD 590 nm OD590” value [3, 7] was 0.41.

With `CCCCc1ccc(O)cc1` [4-n-butyl phenol] the “MBC of phenolic compound” value [2, 5] was 0.25 % (w/v).

With `Cc1cc(O)ccc1C(C)C` [4-isopropyl-3-methylphenol] the “No. of replicates showing growth (out of 4)” value ([3]; single active alone at […] w/v) was 4, the “Δ OD 450 nm = OD450” value ([3]; single active alone at […] w/v) was −1.53 and the “Δ OD 590 nm OD590” value ([3]; single active alone at […] w/v) was 0.23.

In the case of `Cc1ccc(C(C)(C)C)c(O)c1` [2-tert-butyl-5-methylphenol], the MBC of phenol [3] is reported as 0.2 % (w/v).

`CC1=CC(C)C(CO)C(C)C1` (stereo not drawn) [2,4,6-trimethyl-3-cyclohexene-1-methanol] was tested, and the MBC [3] was 4000 µg/mL, the “No. of replicates showing growth (out of 4)” value [3, 7] was 4 and the “Δ OD 450 nm = OD450” value [3, 7] was −1.50. The “Δ OD 590 nm OD590” value [3, 7] was 0.29, the “No. of replicates showing growth (out of 4)” value ([3]; single active alone at […] w/v) was 4 and the “SI (Synergy Index = Qa/QA + Qb/QB)” value [1, 4] was 1.00.

`CC1=CC[C@@H](CO)[C@H](C)C1` (relative stereo) [Floralol, Trans-4,6-dimethyl-3-Cyclohexene-1-methanol] was tested, and the NMBS ([2]; 0.3% w/v, E. coli) was 0 log CFU/ml, the NMBS ([2]; 0.4% w/v, E. coli) was 0 log CFU/ml and the “MBC (minimum biocidal concentration)” value ([2]; E. coli, in water, component alone) was 0.3 % w/v. The NMBS ([2]; […] w/v, E. coli) was 7.92 log CFU/ml, the “MBC of antimicrobial alcohol” value ([2]; antimicrobial alcohol alone, complete bacterial kill against E. coli) was 0.3 % (w/v) and the MBC [3] was 4000 µg/mL. The “No. of replicates showing growth (out of 4)” value [3, 7] was 4, the “Δ OD 450 nm = OD450” value [3, 7] was −1.43 and the “Δ OD 590 nm OD590” value [3, 7] was 0.35. For the same compound, the “No. of replicates showing growth (out of 4)” value [3, 8] was 4, the “Δ OD 450 nm = OD450” value [3, 8] was −1.20 and the “Δ OD 590 nm OD590” value [3, 8] was 0.55. For the same compound, the “No. of replicates showing growth (out of 4)” value ([3]; single active alone at […] w/v) was 1, the “Δ OD 450 nm = OD450” value ([3]; single active alone at […] w/v) was −0.29 and the “Δ OD 590 nm OD590” value ([3]; single active alone at […] w/v) was 0.23.

`Cc1ccc(C(C)C)cc1O` [5-isopropyl-2-methylphenol] was tested, and the “No. of replicates showing growth (out of 4)” value [3, 6] was 4, the “Δ OD 450 nm = OD450” value [3, 6] was −0.52 and the “Δ OD 590 nm OD590” value [3, 6] was 0.62. For the same compound, the “No. of replicates showing growth (out of 4)” value [3, 7] was 4, the “Δ OD 450 nm = OD450” value [3, 7] was −0.52 and the “Δ OD 590 nm OD590” value [3, 7] was 0.62. For the same compound, the “No. of replicates showing growth (out of 4)” value ([3]; single active alone at […] w/v) was 4 and the “SI (Synergy Index = Qa/QA + Qb/QB)” value [1] was 1.00.

`CCC(C)c1ccccc1O` (stereo not drawn) [2-sec-butyl phenol] was tested, and the MBC of phenol [3] was 0.175 % (w/v).

`CC(C)(C)c1ccccc1O` [2-ter-butylphenol] was tested, and the “No. of replicates showing growth (out of 4)” value [3, 9] was 4, the “Δ OD 450 nm = OD450” value [3, 9] was −1.08 and the “Δ OD 590 nm OD590” value [3, 9] was 0.57.

For `CC(C)(C)c1ccccc1O` [2-tert-butylphenol], the “SI (Synergy Index = Qa/QA + Qb/QB)” value [1, 4] was 1.00.

`CCCc1ccc(O)cc1` [4-propylphenol] was tested, and the “No. of replicates showing growth (out of 4)” value [3, 6] was 4, the “Δ OD 450 nm = OD450” value [3, 6] was −1.59 and the “Δ OD 590 nm OD590” value [3, 6] was 0.34. For the same compound, the “No. of replicates showing growth (out of 4)” value [3, 7] was 4, the “No. of replicates showing growth (out of 4)” value ([3]; single active alone at […] w/v) was 4 and the “SI (Synergy Index = Qa/QA + Qb/QB)” value [1, 4] was 1.00.

`C=C(C)[C@@H]1CC=C(CO)CC1` [(S)-(−) perillyl alcohol] was tested, and the “No. of replicates showing growth (out of 4)” value [3, 7] was 4, the “Δ OD 450 nm = OD450” value [3, 7] was −1.44 and the “Δ OD 590 nm OD590” value [3, 7] was 0.36. The “No. of replicates showing growth (out of 4)” value [3, 8] was 4, the “Δ OD 450 nm = OD450” value [3, 8] was −1.15 and the “Δ OD 590 nm OD590” value [3, 8] was 0.56. The “No. of replicates showing growth (out of 4)” value ([3]; single active alone at […] w/v) was 1, the “Δ OD 450 nm = OD450” value ([3]; single active alone at […] w/v) was −0.18 and the “Δ OD 590 nm OD590” value ([3]; single active alone at […] w/v) was 0.19.

With `CCC(C)c1ccc(O)cc1` (stereo not drawn) [4-sec-butylphenol] the “SI (Synergy Index = Qa/QA + Qb/QB)” value [1, 4] was 1.00.
